# Results reported in PMC6332220, “Synthesis, Characterization and Biological Evaluation of Some Quinoxaline Derivatives: A Promising and Potent New Class of Antitumor and Antimicrobial Agents” (Molecules, 2015).
# Experiments:
# [1] = test system: NCI-H460 (non-small cell lung cancer); experiment: In vitro cytotoxicity, SRB cell growth assay, NCI-H460
# Experimental: (§1) The in vitro cytotoxic activity of the newly synthesized compounds against human breast cell line (MCF7), non-small cell lung cancer NCIH460, CNS cancer SF-268 and WI 38 (normal fibroblast cells) were evaluated using doxorubicin as the reference drug according to the method reported by Skehan et al..
# (§2) The newly synthesized compounds were evaluated in vitro against three human cancer cell lines; which are MCF-7 (breast adenocarcinoma), NCI-H460 (non-small cell lung cancer) and SF-268 (CNS cancer), and WI 38 (normal fibroblast cells) were used in this study. MCF-7 was obtained from the European Collection of Cell Cultures (ECACC, Salisbury, UK) but NCI-H460, SF-268 and WI 38 were kindly provided by the National Cancer Institute (NCI, Cairo, Egypt). They grow as monolayer and routinely maintained RPMI-1640 medium supplemented with 5% heat inactivated fetal bovine serum (FBS), 2 mM glutamine and antibiotics (penicillin 100 U/mL, streptomycin 100 µg/mL), at 37 °C in a humidified atmosphere containing 5% CO2. Exponentially growing cells were obtained by plating 1.5 × 10^5 cells/mL for MCF-7 and SF-268, and 0.75 × 10^4 cells/mL for NCI-H460 followed by 24 h of incubation. The effect of the vehicle solvent (DMSO) on the growth of these cell lines was evaluated in all experiments by exposing untreated control cells to the maximum concentration (0.5%) of DMSO used in each assay.
# (§3) The effect of compounds on the in vitro growth of human tumor cell lines were evaluated according to the procedure adopted by the National Cancer Institute ([…]) in the “In vitro Anticancer Drug Discovery Screen” that uses the protein-binding dye sulforhodamine B (SRB) to assess cell growth. In the assay protocol, all cells were incubated at 37 °C under humidified atmosphere containing 5% CO2. Briefly, exponentially cells growing in 96-well plates were then exposed for 48 h to five serial concentrations of each compound, starting from a maximum concentration of 150 μg/mL. Following this exposure period adherent cells were fixed, washed and stained. The bound stain was solubilized and the absorbance was measured at 492 nm in a plate reader (Bio-Tek Instruments Inc., Power wave XS, Winston, NC, USA). For each test compound and cell line, a dose response curve was obtained and the inhibitory concentration of 50% (IC50), corresponding to the concentration of the compounds that inhibited 50% of the net cell growth was calculated as described elsewhere. Doxorubicin was used as a positive control and tested in the same manner.
# Streptococcus faecalis [2] = experiment: MIC by broth dilution, Streptococcus faecalis; type: cell-based; details: Gram positive, 0.98-125 µg/mL
# Experimental: (§4) In this study, MIC (quantitative method) was used for evaluation of the antimicrobial activity of tested compounds. Screening was evaluated in vitro using the Broth dilution method according to CLSI [45]. All the bacteria were incubated and activated at 30 °C for 24 h inoculation into nutrient broth and the fungi were incubated in malt extract broth for 48 h. The compounds were dissolved in DMSO and then diluted using […] Mueller-Hinton broth. […] In each case triplicate tests were performed and the average was taken as the final reading. The tubes were then inoculated with the test organisms, grown in their suitable broth at 37 °C for 24 h for tested microorganisms (1 × 10^8 CFU/mL for bacteria and 1 × 10^6 CFU/mL of fungi), each 5 mL received 0.1 mL of the above inoculum and incubated at 37 °C for 24 h.
# [3] = test system: WI 38 (normal fibroblast cells); experiment: In vitro cytotoxicity, SRB cell growth assay, normal cells WI 38; type: cell-based, human; details: 48 h exposure, non-cytotoxic = IC50 >100 μg/mL
# Experimental: as §1, §2, §3
# Neisseria gonorrhoeae = experiment: Disk diffusion, Neisseria gonorrhoeae; type: cell-based; details: Gram negative, 8.0 mm disks, 10 μL
# Experimental: (§5) The disk diffusion method was used for determination of the antimicrobial activity using ampicillin, gentamicin and amphotericin B as reference drugs. The results were recorded for each compounds as the average diameter as inhibition zones (IZ) of bacterial or fungal growth around the discs in mm as shown in Table 2.
# (§6) Antimicrobial activities were carried out against highly pathogenic strains; three strains of Gram positive bacteria (Bacillus subtilis, Staphylococcus aureus and Streptococcus faecalis), four strains of Gram negative bacteria (Escherichia coli, Neisseria gonorrhoeae, Pseudomonas aeruginosa and Salmonella typhimurium) and three fungi strains (Aspergillus flavus, Aspergillus fumigatus and Candida albicans) isolated from primary agar plates. Antimicrobial activity of the tested samples was determined using a modified Kriby-Bauer disk diffusion method. Briefly, 100 µL of the test bacteria/fungi were grown in 10 mL of fresh media until they reached a count approximately 10^8 cells/mL for bacteria or 10^5 cells/mL for fungi. 100 µL of microbial suspension was spread onto agar plates corresponding to the broth in which they were maintained. The inoculated plates of bacterial strains were incubated at 35–37 °C for 24–48 h, while the inoculated plates of fungal strains such as A. flavus and A. fumigatus were incubated at 25 °C for 48 h and yeast as C. albicans was incubated at 30 °C for 24–48 h.
# (§7) The agar disk diffusion (qualitative) method was used in this investigation for determination of the preliminary antibacterial and antifungal activities. The agar used was Mueller-Hinton agar plates that are rigorously tested for composition and pH. Further the depth of the agar in the plate is a factor to be considered in the disk diffusion method.
# (§8) Reference drugs: ampicillin was used as a standard antibacterial drug for Gram positive bacteria, gentamicin as a standard antibacterial drug for Gram negative bacteria and amphotericin B as antifungal standard drug.
# (§9) Bacterial and fungal strains were spread onto the surface of the agar plates using sterile cotton swabs. For evaluation of antibacterial activities, blank paper disks (Schleicher & Schuell, Alicante, Spain) with a diameter of 8.0 mm were saturated with 10 μL of tested concentration of the stock solutions. Disks were dried and then placed onto inoculated agar plates. The plates of bacterial strains were reincubated at 35–37 °C for 24–48 h, while the plates of fungal strains such as A. flavus and A. fumigatus were reincubated at 25 °C for 48 h and yeast as C. albicans was reincubated at 30 °C for 24–48 h as mentioned above. […] For an accurate analysis, tests were run in triplicate for each strain to avoid any error as described in Table 2.
# Aspergillus flavus = experiment: Disk diffusion, Aspergillus flavus; type: cell-based; details: Fungi, 8.0 mm disks, 10 μL
# Experimental: as §5, §6, §7, §8, §9
# (§10) Disk diffusion method for filamentous fungi testing by using approved standard method (M02-A11) developed by the CLSI for evaluating the susceptibilities of filamentous fungi to antifungal agents. Disk diffusion method for yeasts developed by using approved standard method (M44-A2) by the CLSI [44]. Agar-based methods such as disk diffusion can be good alternatives because they are simpler and faster than broth-based methods.
# Aspergillus fumigatus = experiment: Disk diffusion, Aspergillus fumigatus; type: cell-based; details: Fungi, 8.0 mm disks, 10 μL
# Experimental: as §5, §6, §7, §8, §9, §10
# Salmonella typhimurium [4] = experiment: MIC by broth dilution, Salmonella typhimurium; type: cell-based; details: Gram negative, 0.98-125 µg/mL
# Experimental: as §4
# Staphylococcus aureus [5] = experiment: Disk diffusion, Staphylococcus aureus; type: cell-based; details: Gram positive, 8.0 mm disks, 10 μL
# Experimental: as §5, §6, §7, §8, §9
# Bacillus subtilis [6] = experiment: MIC by broth dilution, Bacillus subtilis; type: cell-based; details: Gram positive, 0.98-125 µg/mL
# Experimental: as §4
# Escherichia coli [7] = experiment: Disk diffusion, Escherichia coli; type: cell-based; details: Gram negative, 8.0 mm disks, 10 μL
# Experimental: as §5, §6, §7, §8, §9
# Streptococcus faecalis [8] = experiment: Disk diffusion, Streptococcus faecalis; type: cell-based; details: Gram positive, 8.0 mm disks, 10 μL
# Experimental: as §5, §6, §7, §8, §9
# Candida albicans = experiment: Disk diffusion, Candida albicans; type: cell-based; details: Fungi, 8.0 mm disks, 10 μL
# Experimental: as §5, §6, §7, §8, §9, §10
# SF-268 (CNS cancer) = experiment: In vitro cytotoxicity, SRB cell growth assay, SF-268
# Experimental: as §1, §2, §3
# Staphylococcus aureus [9] = experiment: MIC by broth dilution, Staphylococcus aureus; type: cell-based; details: Gram positive, 0.98-125 µg/mL
# Experimental: as §4
# Salmonella typhimurium [10] = experiment: Disk diffusion, Salmonella typhimurium; type: cell-based; details: Gram negative, 8.0 mm disks, 10 μL
# Experimental: as §5, §6, §7, §8, §9
# [11] = test system: MCF-7 (breast adenocarcinoma); experiment: In vitro cytotoxicity, SRB cell growth assay, MCF-7
# Experimental: as §1, §2, §3
# Bacillus subtilis [12] = experiment: Disk diffusion, Bacillus subtilis; type: cell-based; details: Gram positive, 8.0 mm disks, 10 μL
# Experimental: as §5, §6, §7, §8, §9
# Escherichia coli [13] = experiment: MIC by broth dilution, Escherichia coli; type: cell-based; details: Gram negative, 0.98-125 µg/mL
# Experimental: as §4
# Pseudomonas aeruginosa [14] = experiment: MIC by broth dilution, Pseudomonas aeruginosa; type: cell-based; details: Gram negative, 0.98-125 µg/mL
# Experimental: as §4
# Pseudomonas aeruginosa [15] = experiment: Disk diffusion, Pseudomonas aeruginosa; type: cell-based; details: Gram negative, 8.0 mm disks, 10 μL
# Experimental: as §5, §6, §7, §8, §9
compound,measurement,setting,value
"9-Bromo-di-1,2,4-triazolo[1,5-a:5′,1′-c]quinoxaline [Compound 13]",IC50 (μg/mL) NCI-H460,"[1]; NCI-H460, SRB, 48 h exposure",36.05 ± 5.23 µg/mL
same,Minimum Inhibitory Concentration (MIC) (µg/mL) Streptococcus faecalis,Streptococcus faecalis [2],62.5 µg/mL
same,IC50 (μg/mL) WI 38,[3],18.62 ± 1.21 µg/mL
same,Inhibition Zone Diameter (IZ) (mm) Neisseria gonorrhoeae,Neisseria gonorrhoeae,R (R (IZ = 0 mm))
same,Inhibition Zone Diameter (IZ) (mm) Aspergillus flavus,Aspergillus flavus,R (R (IZ = 0 mm))
same,Inhibition Zone Diameter (IZ) (mm) Aspergillus fumigatus,Aspergillus fumigatus,R (R (IZ = 0 mm))
same,Minimum Inhibitory Concentration (MIC) (µg/mL) Salmonella typhimurium,Salmonella typhimurium [4],3.9 µg/mL
same,Inhibition Zone Diameter (IZ) (mm) Staphylococcus aureus,Staphylococcus aureus [5],16 mm
same,Minimum Inhibitory Concentration (MIC) (µg/mL) Bacillus subtilis,Bacillus subtilis [6],1.95 µg/mL
same,Inhibition Zone Diameter (IZ) (mm) Escherichia coli,Escherichia coli [7],17 mm
same,Inhibition Zone Diameter (IZ) (mm) Streptococcus faecalis,Streptococcus faecalis [8],20 mm
same,Inhibition Zone Diameter (IZ) (mm) Candida albicans,Candida albicans,R (R (IZ = 0 mm))
same,IC50 (μg/mL) SF-268,"SF-268 (CNS cancer); SF-268, SRB, 48 h exposure",29.35 ± 7.01 µg/mL
same,Minimum Inhibitory Concentration (MIC) (µg/mL) Staphylococcus aureus,Staphylococcus aureus [9],7.81 µg/mL
same,Inhibition Zone Diameter (IZ) (mm) Salmonella typhimurium,Salmonella typhimurium [10],17 mm
same,IC50 (μg/mL) MCF-7,"[11]; MCF-7, SRB, 48 h exposure",37.64 ± 6.72 µg/mL
same,Inhibition Zone Diameter (IZ) (mm) Bacillus subtilis,Bacillus subtilis [12],17 mm
same,Minimum Inhibitory Concentration (MIC) (µg/mL) Escherichia coli,Escherichia coli [13],7.81 µg/mL
same,Minimum Inhibitory Concentration (MIC) (µg/mL) Pseudomonas aeruginosa,Pseudomonas aeruginosa [14],125 µg/mL
same,Inhibition Zone Diameter (IZ) (mm) Pseudomonas aeruginosa,Pseudomonas aeruginosa [15],19 mm
NNc1nc2ccc(Br)cc2n2nnnc12 [Compound 10],MIC,"Streptococcus faecalis [2]; Enterococcus faecalis, 24 h, read-out: Minimum Inhibitory Concentration (MIC) (µg/mL) Streptococcus faecalis",0.98 µg/mL
same,MIC,"Salmonella typhimurium [4]; Salmonella enterica, TYPHIMURIUM, 24 h, read-out: Minimum Inhibitory Concentration (MIC) (µg/mL) Salmonella typhimurium",1.95 µg/mL
same,MIC,"Bacillus subtilis [6]; Bacillus subtilis, 24 h, read-out: Minimum Inhibitory Concentration (MIC) (µg/mL) Bacillus subtilis",0.98 µg/mL
same,MIC,"Staphylococcus aureus [9]; Staphylococcus aureus, 24 h, read-out: Minimum Inhibitory Concentration (MIC) (µg/mL) Staphylococcus aureus",0.98 µg/mL
same,MIC,"Escherichia coli [13]; Escherichia coli, 24 h, read-out: Minimum Inhibitory Concentration (MIC) (µg/mL) Escherichia coli",3.9 µg/mL
same,MIC,"Pseudomonas aeruginosa [14]; Pseudomonas aeruginosa, 24 h, read-out: Minimum Inhibitory Concentration (MIC) (µg/mL) Pseudomonas aeruginosa",125 µg/mL
"CC1=NN(c2nc3ccc(Br)cc3nc2N2N=C(C)CC2=O)C(=O)C1 [Compound 17, 6-Bromo-2,3-bis(3-methyl-1H-pyrazol-5(4H)-one)quinoxaline]",IC50,"[1]; Homo sapiens, NCI-H460, 48 h, read-out: IC50 (μg/mL) NCI-H460",15.81 ± 0.1 µg/mL
same,IC50,"[3]; Homo sapiens, WI-38, 48 h",21.4 ± 2.02 µg/mL
same,Inhibition Zone Diameter (IZ) (mm) Neisseria gonorrhoeae,Neisseria gonorrhoeae,6 mm
same,Inhibition Zone Diameter (IZ) (mm) Aspergillus flavus,Aspergillus flavus,R (R (IZ = 0 mm))
same,Inhibition Zone Diameter (IZ) (mm) Aspergillus fumigatus,Aspergillus fumigatus,R (R (IZ = 0 mm))
same,Inhibition Zone Diameter (IZ) (mm) Staphylococcus aureus,Staphylococcus aureus [5],8 mm
same,Inhibition Zone Diameter (IZ) (mm) Escherichia coli,Escherichia coli [7],11 mm
same,Inhibition Zone Diameter (IZ) (mm) Streptococcus faecalis,Streptococcus faecalis [8],10 mm
same,Inhibition Zone Diameter (IZ) (mm) Candida albicans,Candida albicans,R (R (IZ = 0 mm))
same,melting point,,152 to 154 °C
same,IC50,"SF-268 (CNS cancer); Homo sapiens, SF-268, 48 h, read-out: IC50 (μg/mL) SF-268",21.3 ± 2.12 µg/mL
same,Inhibition Zone Diameter (IZ) (mm) Salmonella typhimurium,Salmonella typhimurium [10],5 mm
same,IC50,"[11]; Homo sapiens, MCF7, 48 h, read-out: IC50 (μg/mL) MCF-7",21.23 ± 0.14 µg/mL
same,Inhibition Zone Diameter (IZ) (mm) Bacillus subtilis,Bacillus subtilis [12],7 mm
same,Inhibition Zone Diameter (IZ) (mm) Pseudomonas aeruginosa,Pseudomonas aeruginosa [15],8 mm
